According to article PMC9500072, “Topical application of an irreversible small molecule inhibitor of lysyl oxidases ameliorates skin scarring and fibrosis” (Nature Communications, 2022):
Like-named read-outs stand apart in the source and are kept apart here.

What was measured:
Type in all cases: biochemical
Dog Recombinant LOXL2 = biological target: T1, Dog Recombinant LOXL2 (Canis lupus familiaris, UniProt A0A8I3P9Y5); experiment: Amine oxidase inhibition profile, dog LOXL2
T1 construct: made in house; host or cells: HEK-293 clones (provided by Dr. Fernando Rodríguez Pascual)
T1 sequence (A0A8I3P9Y5 1-777): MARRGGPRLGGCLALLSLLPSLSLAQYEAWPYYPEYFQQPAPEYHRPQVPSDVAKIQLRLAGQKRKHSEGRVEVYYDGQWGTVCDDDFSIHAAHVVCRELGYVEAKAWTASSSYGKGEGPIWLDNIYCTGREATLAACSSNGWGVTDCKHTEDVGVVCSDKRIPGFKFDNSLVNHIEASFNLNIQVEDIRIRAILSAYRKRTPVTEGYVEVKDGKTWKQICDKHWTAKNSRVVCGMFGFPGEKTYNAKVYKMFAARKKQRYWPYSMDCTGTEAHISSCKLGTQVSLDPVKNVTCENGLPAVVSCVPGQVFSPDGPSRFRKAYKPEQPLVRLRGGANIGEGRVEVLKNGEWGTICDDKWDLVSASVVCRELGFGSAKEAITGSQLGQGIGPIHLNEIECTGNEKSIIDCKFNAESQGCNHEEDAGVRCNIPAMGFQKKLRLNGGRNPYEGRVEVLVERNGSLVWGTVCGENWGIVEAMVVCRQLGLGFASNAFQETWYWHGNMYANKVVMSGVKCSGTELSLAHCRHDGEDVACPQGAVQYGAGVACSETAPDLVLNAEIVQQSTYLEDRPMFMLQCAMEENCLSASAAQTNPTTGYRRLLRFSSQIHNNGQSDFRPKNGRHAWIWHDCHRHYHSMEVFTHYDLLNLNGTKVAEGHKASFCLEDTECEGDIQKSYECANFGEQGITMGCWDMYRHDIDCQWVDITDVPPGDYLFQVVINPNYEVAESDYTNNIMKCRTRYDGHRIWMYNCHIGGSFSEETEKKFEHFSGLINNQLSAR

Human Recombinant SSAO = biological target: T2, Human Recombinant SSAO (Homo sapiens, UniProt Q16853); experiment: Amine oxidase inhibition profile, SSAO
T2 sequence (Q16853 1-763): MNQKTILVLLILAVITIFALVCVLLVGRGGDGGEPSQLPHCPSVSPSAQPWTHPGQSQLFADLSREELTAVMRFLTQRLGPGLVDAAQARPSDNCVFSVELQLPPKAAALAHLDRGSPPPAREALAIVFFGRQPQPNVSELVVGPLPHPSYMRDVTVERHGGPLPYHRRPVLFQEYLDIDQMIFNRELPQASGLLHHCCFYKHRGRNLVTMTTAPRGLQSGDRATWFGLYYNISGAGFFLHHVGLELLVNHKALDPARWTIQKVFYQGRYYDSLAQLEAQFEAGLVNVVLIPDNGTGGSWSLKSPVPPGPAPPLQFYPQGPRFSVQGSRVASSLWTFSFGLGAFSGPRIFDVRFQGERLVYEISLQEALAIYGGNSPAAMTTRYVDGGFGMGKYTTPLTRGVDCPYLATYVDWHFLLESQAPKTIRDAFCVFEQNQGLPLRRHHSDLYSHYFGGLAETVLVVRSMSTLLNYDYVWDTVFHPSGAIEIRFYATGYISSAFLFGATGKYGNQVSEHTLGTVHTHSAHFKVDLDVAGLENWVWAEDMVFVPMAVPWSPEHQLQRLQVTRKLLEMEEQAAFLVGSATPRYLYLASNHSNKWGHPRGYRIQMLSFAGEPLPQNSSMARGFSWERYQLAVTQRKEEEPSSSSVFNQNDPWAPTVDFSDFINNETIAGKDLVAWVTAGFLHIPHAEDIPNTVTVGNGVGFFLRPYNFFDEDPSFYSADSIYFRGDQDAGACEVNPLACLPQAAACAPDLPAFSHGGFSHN
Excerpt: (§1) Supplem entary Materi als:
(§2) Supplementary Table S1: Amine oxidase inhibition profile of PXS -4787, PXS-6302 and
(§3) Supplementary Table S2: Perm eability profile of PXS -6302.

DAO = biological target: T3, DAO (Homo sapiens, UniProt P19801); experiment: Amine oxidase inhibition profile, DAO
T3 sequence (P19801 20-751): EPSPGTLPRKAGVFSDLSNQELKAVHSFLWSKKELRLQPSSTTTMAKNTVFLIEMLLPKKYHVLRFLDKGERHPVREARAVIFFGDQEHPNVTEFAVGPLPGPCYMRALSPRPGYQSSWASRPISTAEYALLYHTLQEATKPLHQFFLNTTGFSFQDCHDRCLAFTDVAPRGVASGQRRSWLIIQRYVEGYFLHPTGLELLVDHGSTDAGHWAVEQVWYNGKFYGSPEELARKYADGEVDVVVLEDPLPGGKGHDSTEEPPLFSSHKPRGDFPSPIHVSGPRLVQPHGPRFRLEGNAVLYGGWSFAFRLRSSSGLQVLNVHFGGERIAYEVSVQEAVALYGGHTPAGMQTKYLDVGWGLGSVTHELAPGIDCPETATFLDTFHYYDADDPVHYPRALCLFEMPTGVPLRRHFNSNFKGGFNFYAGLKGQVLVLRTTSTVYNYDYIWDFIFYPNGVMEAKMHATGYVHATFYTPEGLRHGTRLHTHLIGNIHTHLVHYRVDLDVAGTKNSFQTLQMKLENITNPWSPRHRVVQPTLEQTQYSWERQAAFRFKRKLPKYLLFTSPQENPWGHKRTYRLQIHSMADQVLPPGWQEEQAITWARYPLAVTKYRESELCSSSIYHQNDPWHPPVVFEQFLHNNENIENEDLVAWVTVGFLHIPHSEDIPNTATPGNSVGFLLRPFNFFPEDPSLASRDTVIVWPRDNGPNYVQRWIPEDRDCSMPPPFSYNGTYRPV
Excerpt: as §1, §2, §3

[1] = read-out: Recombinant SSAO IC50

Row | Compound | IC50 (Dog Recombinant LOXL2) | IC50 (Human Recombinant SSAO; [1]) | IC50 (DAO; read-out: Recombinant DAO IC50) | IC50 (Human Recombinant SSAO) | IC50 (DAO) | Dog Recombinant LOXL2 pIC50±SD (Dog Recombinant LOXL2) | Recombinant SSAO pIC50 (Human Recombinant SSAO) | Recombinant DAO pIC50 (DAO)
1 | NC/C=C(\F)CS(=O)(=O)c1ccccc1 [PXS-4787] | 0.62 µM | > 100 µM | > 100 µM |  |  |  |  | 
2 | NC/C=C(\F)C(F)(F)S(=O)(=O)c1ccccc1 [PXS-6302] | 0.34 µM |  |  | > 30 µM | > 30 µM |  |  | 
3 | N#CCCN [BAPN, β-aminoproprionitrile, reference compound] | 0.48 µM | > 100 µM | > 30 µM |  |  | 6.3 ± 0.1 | < 4 | < 4.5
